Test [1] addresses T1, human RORγt ligand binding domain (RORγt LBD) (Homo sapiens, UniProt P51449).
T1 construct: His-tag (N); TurboTEV protease cleavage site (ENLYFQG) (N); made in house; host or cells: E. coli (pHIS1, modified pET vector)
T1 sequence (P51449 with tags, fused parts or gaps): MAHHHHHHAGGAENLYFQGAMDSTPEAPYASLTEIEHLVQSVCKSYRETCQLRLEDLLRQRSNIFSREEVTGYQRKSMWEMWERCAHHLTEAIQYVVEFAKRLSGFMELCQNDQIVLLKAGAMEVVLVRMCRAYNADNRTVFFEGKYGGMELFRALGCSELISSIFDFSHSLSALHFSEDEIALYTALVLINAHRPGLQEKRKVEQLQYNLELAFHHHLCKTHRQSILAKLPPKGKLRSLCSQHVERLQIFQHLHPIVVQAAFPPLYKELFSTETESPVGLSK
Kind of test: RORγt ThermoFluor assay (thermal shift, ligand binding affinity). Particulars: estimated from concentration response of thermal shift. The essentials:
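Thermal shift of 0.065 mg/mL RORγt with 60 μM 1,8-ANS in 100 mM Hepes pH 7.0, 10 mM NaCl, 2.5 mM GSH, 0.002% Tween-20. Compounds in 1:2 series from 10 mM DMSO stock. Dye fluorescence (500 nm emission) tracked versus temperature; ΔTm used to derive KD.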

In a further test the target is T2, human RORγt LBD (Homo sapiens, UniProt P51449).
T2 construct: expressed in transfected cells
T2 sequence (P51449 258-518): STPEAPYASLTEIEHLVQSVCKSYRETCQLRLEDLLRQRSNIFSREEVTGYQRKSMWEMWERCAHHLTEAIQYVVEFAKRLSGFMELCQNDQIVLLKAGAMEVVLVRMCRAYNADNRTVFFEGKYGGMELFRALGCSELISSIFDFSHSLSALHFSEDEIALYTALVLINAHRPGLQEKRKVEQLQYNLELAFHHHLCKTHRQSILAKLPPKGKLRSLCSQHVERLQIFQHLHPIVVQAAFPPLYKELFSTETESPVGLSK
Kind of test: RORγt reporter assay (GAL4-RORγt LBD luciferase in HEK293T cells). The format is cell-based. Particulars: for pIC50: HEK293T cells, 24 hours compound treatment; for inhibition at 6 µM: HEK-293T, read-out: RORγt reporter Assay, % inhibition @ 6 μM, HEK293T cells, 6 μM compound. The essentials:
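HEK293T cells transiently co-transfected with pBIND (GAL4 DBD fused to wild-type human RORγt LBD, plus SV40-driven renilla luciferase) and pGL4.31 GAL4-responsive firefly luciferase reporter. Plated in phenol-red-free DMEM with 5% lipid-reduced FCS and treated with compound for 24 h. Firefly/renilla luminescence ratio plotted against compound concentration.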

Test [2] has as its system IL-17 production by CD4 T cells. In words: Human Th17 assay (IL-17 production by CD4 T cells under Th17 differentiation conditions). The format is cell-based. Particulars: IL-17 in supernatant after 3 days. The essentials: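 Primary CD4+ T cells from healthy-donor PBMC, preincubated 1 h with titrated compound (0.2% DMSO), then activated with anti-CD3/CD28 beads plus anti-IL4, anti-IFNγ, IL1β, IL23, IL6, TGFβ and IL2.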

The text below walks through data of US9309222B2, “Phenyl linked quinolinyl modulators of RORγt” (Janssen Pharmaceutica NV, priority 2012, dated 2016).

Structures are written as SMILES. pIC50, pKd: −log10 of the molar value. Several values for one entry are separate records, joined by “and”; a condition that tells them apart may be missing. Equal values may be shown once. Where a name gives a salt, the structure may show the parent alone. Bounds are passed on as bounds.

`Cc1ccc(C(O)(c2cc(C)c3nc(Cl)c(-c4ccccc4)c(Cl)c3c2)c2sccc2C)cn1` (centres unmarked) [Example 158, (2,4-Dichloro-8-methyl-3-phenylquinolin-6-yl)(6-methylpyridin-3-yl)(3-methylthiophen-2-yl)methanol]: in test [1], the pKd is 5.70. Further, at human RORγt LBD, the pIC50 is 6.31 and the inhibition at 6 µM came to 79%. The pIC50 in test [2] (Homo sapiens, CD4+ T, 72 h) is under 5.22.

In the case of `OC(c1cccnc1)(c1cccc(Cl)c1)c1ccc2nc(Cl)c(-c3ccccc3)c(Cl)c2c1` (centres unmarked) [Example 25, (3-Chlorophenyl)(2,4-dichloro-3-phenylquinolin-6-yl)(pyridin-3-yl)methanol], the pKd in test [1] is 7.19. Also, at human RORγt LBD, the pIC50 was 7.03 and ~7.05; the inhibition at 6 µM amounted to 99%. The same compound had a pIC50 in test [2] (Homo sapiens, CD4+ T, 72 h) of 6.47.

For `OC(c1ccc(Cl)nc1)(c1cccc(Cl)c1)c1ccc2nc(Cl)c(-c3ccccc3)c(Cl)c2c1` (centres unmarked) [Example 56, (3-Chlorophenyl)(6-chloropyridin-3-yl)(2,4-dichloro-3-phenylquinolin-6-yl)methanol], in test [1], the pKd is 7.40. Also, on human RORγt LBD, the pIC50 is 6.77 and the inhibition at 6 µM was found to be 91%. In test [2] (Homo sapiens, CD4+ T, 72 h), this compound showed a pIC50 of 6.62.

Turning to `N#Cc1nc2ccc(C(O)(c3ccc(C(N)=O)nc3)c3cccc(Cl)c3)cc2c(C#N)c1-c1ccccc1` (centres unmarked) [Example 112, 5-[(3-Chlorophenyl)(2,4-dicyano-3-phenylquinolin-6-yl)hydroxymethyl]pyridine-2-carboxamide•TFA], the pKd in test [1] was 6.92. For the same compound, on human RORγt LBD, the pIC50 was 6.42 and the inhibition at 6 µM came to 100%. The same compound showed a pIC50 in test [2] (Homo sapiens, CD4+ T, 72 h) of 6.32.

Turning to `CCN(C)c1nc2ccc(C(O)(c3ccncc3)c3cncn3C)cc2c(Cl)c1-c1ccccc1` (centres unmarked) [Example 50, {4-Chloro-2-[ethyl(methyl)amino]-3-phenylquinolin-6-yl}(1-methyl-1H-imidazol-5-yl)pyridin-4-ylmethanol•TFA], the pKd in test [1] is 8.30. Also, the pIC50 is 8.15 and ~8.05 and > 7.30 at human RORγt LBD; 7.44 in test [2] (Homo sapiens, CD4+ T, 72 h). Moreover, the inhibition at 6 µM on human RORγt LBD worked out at 105%.

For `Cn1cncc1C(O)(c1ccncc1)c1ccc2nc(N3CCOCC3)c(-c3ccccc3)c(Cl)c2c1` (centres unmarked) [Example 20, (4-Chloro-2-morpholin-4-yl-3-phenylquinolin-6-yl)(1-methyl-1H-imidazol-5-yl)pyridin-4-ylmethanol•TFA], the pKd in test [1] was 6.89. The pIC50 against human RORγt LBD is 6.48; in test [2] (Homo sapiens, CD4+ T, 72 h), 6.28. The inhibition at 6 µM on human RORγt LBD was determined as 104%.

With `COc1c(-c2ccccc2)c(N(C)C)nc2ccc(C(O)(c3ccncc3)c3cncn3C)cc12` (centres unmarked) [Example 107, [2-(Dimethylamino)-4-methoxy-3-phenylquinolin-6-yl](1-methyl-1H-imidazol-5-yl)pyridin-4-ylmethanol•TFA], the pKd in test [1] is 7.19. At human RORγt LBD, the pIC50 is 7.23 and the inhibition at 6 µM amounted to 101%. The pIC50 in test [2] (Homo sapiens, CD4+ T, 72 h) was 7.41.

Take `CN(C)c1nc2ccc(C(O)(c3cccnc3)c3cccnc3)cc2c(Cl)c1-c1ccccc1` [Example 40, [4-Chloro-2-(dimethylamino)-3-phenylquinolin-6-yl](dipyridin-3-yl)methanol•TFA]: the pKd in test [1] was 7.74. In addition, the pIC50 at human RORγt LBD is 7.33 and > 7.30; in test [2] (Homo sapiens, CD4+ T, 72 h), 7.25. Further, at human RORγt LBD, the inhibition at 6 µM came out at 100%.

As to `CCN(CC)c1nc2ccc(C(O)(c3ccncc3)c3cncn3C)cc2c(C)c1-c1ccccc1` (centres unmarked) [Example 102, [2-(Diethylamino)-4-methyl-3-phenylquinolin-6-yl](1-methyl-1H-imidazol-5-yl)pyridin-4-ylmethanol•TFA], the pKd in test [1] was 7.39. For the same compound, the pIC50 was 6.85 against human RORγt LBD and 6.82 in test [2] (Homo sapiens, CD4+ T, 72 h). Besides, the inhibition at 6 µM at human RORγt LBD came to 104%.

Regarding `COc1nc2c(C)cc(C(O)(c3ccc(F)cc3)c3cncn3C)cc2c(C#N)c1-c1cccc(F)c1` (single isomer, unassigned) [Example 180b, 3-(3-Fluorophenyl)-6-((4-fluorophenyl)(hydroxy)(1-methyl-1H-imidazol-5-yl)methyl)-2-methoxy-8-methylquinoline-4-carbonitrile], the pKd in test [1] was 4.17. Besides, on human RORγt LBD, the pIC50 is 5.72 and ~5.52; the inhibition at 6 µM worked out at 80%. The same compound gave a pIC50 in test [2] of about 5.30.

For the compound `Cn1cncc1C(O)(c1ccc(Cl)nc1)c1ccc2nc(Cl)c(-c3ccccc3)c(Cl)c2c1` (centres unmarked) [Example 13], the pKd in test [1] is 7.82. At human RORγt LBD, the pIC50 was 7.07 and the inhibition at 6 µM came out at 106%. In test [2] (Homo sapiens, CD4+ T, 72 h), this compound showed a pIC50 of 6.28.

Regarding `Cc1cc(C(O)(c2ccc3nc(Cl)c(-c4ccccc4)c(Cl)c3c2)c2cncn2C)cc(Cl)n1` (centres unmarked) [Example 87, (2-Chloro-6-methylpyridin-4-yl)(2,4-dichloro-3-phenylquinolin-6-yl)(1-methyl-1H-imidazol-5-yl)methanol•TFA], the pKd in test [1] is 9.96. At human RORγt LBD, the pIC50 was 8.28 and the inhibition at 6 µM was found to be 105%. The compound also gave a pIC50 in test [2] (Homo sapiens, CD4+ T, 72 h) of about 8.70.

As to `COc1ccc(C(O)(c2cccnc2)c2ccc3nc(N(C)C)c(-c4ccccc4)c(Cl)c3c2)cc1` (centres unmarked) [Example 62, [4-Chloro-2-(dimethylamino)-3-phenylquinolin-6-yl](4-methoxyphenyl)pyridin-3-ylmethanol•TFA], the pKd in test [1] is 6.38. Also, the pIC50 is 6.60 at human RORγt LBD and 6.15 in test [2] (Homo sapiens, CD4+ T, 72 h). Further, the inhibition at 6 µM at human RORγt LBD worked out at 98%.

`CC(=O)N1CCC(C(O)(c2ccc3nc(C(F)(F)F)c(-c4ccccc4)c(C(F)(F)F)c3c2)c2cncn2C)CC1` (single isomer, unassigned) [Example 181b, 1-(4-(Hydroxy(1-methyl-1H-imidazol-5-yl)(3-phenyl-2,4-bis(trifluoromethyl)quinolin-6-yl)methyl)piperidin-1-yl)ethanone]: the pKd in test [1] is 7.57. For the same compound, on human RORγt LBD, the pIC50 is 7.21 and the inhibition at 6 µM worked out at 99%. The same compound showed a pIC50 in test [2] (Homo sapiens, CD4+ T, 72 h) of 6.92.

In the case of `COc1nc2c(C)cc(C(O)(c3ccc(C(F)(F)F)nc3)c3cncn3C)cc2c(Cl)c1-c1cccc(F)c1` (single isomer, unassigned) [Example 177b, (4-Chloro-3-(3-fluorophenyl)-2-methoxy-8-methylquinolin-6-yl)(1-methyl-1H-imidazol-5-yl)(6-(trifluoromethyl)pyridin-3-yl)methanol], the pKd in test [1] was 7.66. Further, on human RORγt LBD, the pIC50 was 6.40 and the inhibition at 6 µM was 83%. Also, the pIC50 in test [2] was 6.70.

For `CCOc1nc2ccc(C(O)(c3ccncc3)c3cncn3C)cc2c(N(C)C)c1-c1ccccc1` (centres unmarked) [Example 92, [4-(Dimethylamino)-2-ethoxy-3-phenylquinolin-6-yl](1-methyl-1H-imidazol-5-yl)pyridin-4-ylmethanol•TFA], the pKd in test [1] was 7.36. Besides, at human RORγt LBD, the pIC50 was 6.92 and the inhibition at 6 µM came to 100%. In test [2] (Homo sapiens, CD4+ T, 72 h), this compound gave a pIC50 of 6.82.

Turning to `OC(c1ccccc1)(c1cccnc1)c1ccc2nc(Cl)c(-c3ccccc3Cl)c(Cl)c2c1` (centres unmarked) [Example 6, (2,4-Dichloro-3-(2-chlorophenyl)quinolin-6-yl)(phenyl)(pyridin-3-yl)methanol], in test [1], the pKd is 7.13. In addition, the pIC50 against human RORγt LBD was 6.62; in test [2] (Homo sapiens, CD4+ T, 72 h), about 5.22. Moreover, the inhibition at 6 µM on human RORγt LBD amounted to 90%.
